The source of these data is patent US20230263459A1, “DEVICE AND METHOD FOR PREVENTING SUDDEN DEATH AND PROTECTING OXYGEN STATUS DURING SEIZURE ACTIVITY” (priority 2020, published 2023).

The structures appear in SMILES notation. “Also recorded” adds a separate entry of the source. Counter-ions that a name gives are not always drawn. Like-named read-outs stand apart in the source and are kept apart here.

Data set [1] relates to rat model of complete airway occlusion. The following applies: for number of breath attempts during occlusion: FIG. 7D, hydrochloride; for time to respiratory arrest (mean): air control 53.6.
Method: Adult male Sprague Dawley rats (AGE median=63, mean=88 days; WEIGHT median=306, mean=329 grams; Envigo Chicago, Ill.) were housed in AAALAC-accredited facilities and maintained on a 12 hour light:dark cycle with a temperature of 23° C. and humidity of 55%, monitored daily, and had unrestricted access to water and food. Urethane (1.5 g/kg ip) was used for anesthesia in all animals.
ECG RECORDINGS—Limb-lead ECG was recorded using copper strips coated with conductive gel wrapped around both forelimbs and the base of the tail. Signals were amplified and filtered to pass 1 Hz to 1 kHz (Model 1800 AC amplifier with headstages; A-M Systems, Sequim, Wash.) and digitized at 2 kHz (Microl401 controlled by Spike 2 software; Cambridge Electronic Design, Cambridge, UK). Rhythm was assessed by reviewing P waves and associated QRS complexes for variations in wave shape, beat-to-beat intervals, and atrial-ventricular coupling.
The raw pulsatile waveform of the pulse oximeter was digitized (2 kHz) with other signals.
INSPIRATORY AIRWAY PRESSURES—A pressure transducer (CyQ, Columbus Instruments, Columbus, Ohio) was connected to the sidearm of a T-shaped tracheal tube (see infra). Inspiratory pressures during complete airway occlusion were measured relative to those observed during baseline breathing. Signals were digitized along with other signals recorded at the same time.
TRACHEAL IMPLANTS—A T-shaped tracheal tube was placed through an incision between cartilaginous rings of the trachea after the trachea was exposed in the neck. The distal arm was “sealed” in the trachea with suture around the trachea, compressing it against the outside wall of the implant.
CONTROLLED AIRWAY OCCLUSION—Obstructive apnea was produced with controlled airway occlusion. The exterior arm in the straight path with the implanted arm served breathing or could be occluded. A pressure transducer on the tracheal tube sidearm recorded forces developed during either normal breathing with the tracheal tube open to the atmosphere or during complete closure of the open port.
Injected volumes were 12.5 ml/kg and averaged 4.25 f 1.00 ml/animal (mean, standard deviation). Fluoxetine hydrochloride (cat #1279804) was obtained from Sigma Aldrich Inc. (St. Louis, Mo.).
Gas was delivered at ˜4 liters/min. In all animals, the occlusion was left in place until 10 seconds after the point of respiratory arrest, which was defined as the time of the peak of the last breath attempt.
Data set [2] deals with audiogenic seizure prone mice. The following applies: cited from earlier work.
The test system of data set [3] is audiogenic seizure-prone mice. The conditions noted are these: oxygen, FIG. 3. The source says:
In audiogenic seizure-prone mice, seizures are stereotyped and consist of a running phase, a clonic phase, and a tonic phase that included hindlimb extension.

[4] abbreviates: fluoxetine 25 mg/kg IP vs saline.

Take `CNCCC(Oc1ccc(C(F)(F)F)cc1)c1ccccc1` (centres unmarked) [fluoxetine, Fluoxetine hydrochloride]: the “attempts needed to effect resuscitation after respiratory arrest” value in data set [1] (SSRI group vs saline, bolus gas delivery) is reported as “required more attempts on average”. For the same molecule, the “increase in the time to respiratory arrest” value in data set [1] (fluoxetine 25 mg/kg IP one hour post-injection vs saline) is 28%. Further, in data set [1] (setting [4]), the “rate of desaturation during occlusion” value is recorded as “did not significantly alter” and the “number of breath attempts during occlusion” value was “no difference”. Moreover, in data set [1] (fluoxetine 25 mg/kg IP vs saline, FIG. 7B), the “inspiratory forces generated during breath attempts while occluded” value is “no apparent differences”. The “number of breath attempts during occlusion” value in data set [1] (fluoxetine 25 mg/kg IP vs saline, listed as Fluoxetine) is on record as “nearly equivalent”. In addition, the respiratory rate result in data set [1] (fluoxetine 25 mg/kg IP vs saline, FIGS. 7E, 7F) was “significantly slowed”. In addition, in data set [1] (fluoxetine 25 mg/kg IP, 60 min before occlusion, n=8, saline control 49.8/49.9), the “time to respiratory arrest (average)” value was found to be 63.8 s. Besides, the minimum oxygen saturation in data set [1] (fluoxetine 25 mg/kg IP, saline group 37%, not statistically significant) turned out to be 34%. For the same molecule, the protection against death entry in data set [2] (multiple strains of audiogenic seizure prone mice (Faingold 2011, 2014; Zeng 2015)) was “protect against death”.
Turning to `O=O` [oxygen], the entries for the “increase in the time to respiratory arrest” value in data set [1] (50% oxygen/50% air 30 seconds prior to occlusion vs air), in data set [1] (oxygen 30 seconds prior to occlusion vs air) and in data set [1] (oxygen 5 minutes prior to occlusion vs air) were 19%, 52% and 65%, respectively. Also, the “time to respiratory arrest (mean)” value in data set [1] (50% oxygen/50% air for 30 seconds prior to airway occlusion, n=7) was 63.9 s; in data set [1] (oxygen atmosphere for 5 minutes prior to airway occlusion) it was 88.4 s; in data set [1] (oxygen stream for only 30 seconds prior to airway occlusion (brief O2), n=10), 81.6 s. The “number of breath attempts” value in data set [1] (50% oxygen/50% air for 30 seconds vs air) is reported as “significantly increased”. Moreover, the “delay in desaturation onset” value in data set [1] (animals breathing oxygen versus air, FIG. 1C) was around 40 s. Moreover, the “minimum pulse oximetry level” value in data set [1] (oxygen animals, n=12, mean, standard deviation) is recorded as 37%±11. In addition, the “time to respiratory arrest relative to room air” value in data set [1] (oxygen enriched atmosphere vs room air, FIG. 1A) was “nearly doubled; also recorded: nearly twice as long”. The “total number of breath attempts during complete airway closure” value in data set [1] (oxygen prior to occlusion vs air, FIG. 1D) is given as “significantly greater”. In addition, in data set [1] (oxygen-breathing rat, pulse oximetry, FIGS. 2A-2B), the “duration of sustained high level of oxygen saturation before decline” value is “about 30 seconds”. Also, in data set [1] (single animal, FIG. 2A, oxygen for five minutes before occlusion, air animal 53), the “time of last breath attempt (respiratory arrest) after occlusion onset” value was 100 s. Further, in data set [1] (single animal, FIG. 2A, oxygen for five minutes before occlusion, air animal about 40), the “onset of ST segment elevation, bradycardia and premature ventricular contractions post-occlusion” value is “about 80 seconds”. The “time in tonic hindlimb extension phase” value in data set [3] is reported as “unchanged”. In addition, the “time to respiratory arrest” value in data set [3] is given as “prolonged”. Moreover, in data set [3], the total seizure time result is “unchanged”. The “protection from normally fatal audiogenic seizures” value in data set [2] (DBA/2 mice, seizures in an oxygen atmosphere (Venit 2004; Willott 1976)) is “protected”. Further, the survival of animals in data set [2] (oxygen treatment (Venit 2004; Willott 1976)) is 100%.
